Test results reported in PubChem BioAssay AID1259407 (Chemical Carcinogenesis Research Information System (CCRIS), 2018).
Activity calls are given as the source filed them. The rule behind the calls is not given here.

Tested on: CCRIS mutagenicity, Ames/micronucleus/aberration tests
Assay: CCRIS mutagenicity studies
[1] = Test System: AMES SALMONELLA TYPHIMURIUM, Strain/Indicator: TA98, Metabolic Activation: NONE, Method: PREINCUBATION
[2] = Test System: AMES SALMONELLA TYPHIMURIUM, Strain/Indicator: TA100, Metabolic Activation: NONE, Method: PREINCUBATION
[3] = Test System: AMES SALMONELLA TYPHIMURIUM, Strain/Indicator: TA98, Metabolic Activation: NONE, Method: STANDARD PLATE
[4] = Test System: AMES SALMONELLA TYPHIMURIUM, Strain/Indicator: TA100, Metabolic Activation: NONE, Method: STANDARD PLATE

## CC(C)(S)C(=O)N[C@@H](CS)C(=O)O
[1]
  mutagenic call: inactive; negative
Test System: AMES SALMONELLA TYPHIMURIUM, Strain/Indicator: TA98, Metabolic Activation: RAT, LIVER, S-9, Method: PREINCUBATION
  mutagenic call: inactive; negative
[2]
  mutagenic call: inactive; negative
Test System: AMES SALMONELLA TYPHIMURIUM, Strain/Indicator: TA100, Metabolic Activation: RAT, LIVER, S-9, Method: PREINCUBATION
  mutagenic call: inactive; negative
Test System: AMES SALMONELLA TYPHIMURIUM, Strain/Indicator: TA1535, Metabolic Activation: NONE, Method: PREINCUBATION
  mutagenic call: inactive; negative
Test System: AMES SALMONELLA TYPHIMURIUM, Strain/Indicator: TA1535, Metabolic Activation: RAT, LIVER, S-9, Method: PREINCUBATION
  mutagenic call: inactive; negative
Test System: AMES SALMONELLA TYPHIMURIUM, Strain/Indicator: TA1537, Metabolic Activation: NONE, Method: PREINCUBATION
  mutagenic call: inactive; negative
Test System: AMES SALMONELLA TYPHIMURIUM, Strain/Indicator: TA1537, Metabolic Activation: RAT, LIVER, S-9, Method: PREINCUBATION
  mutagenic call: inactive; negative
Test System: AMES SALMONELLA TYPHIMURIUM, Strain/Indicator: TA1538, Metabolic Activation: NONE, Method: PREINCUBATION
  mutagenic call: inactive; negative
Test System: AMES SALMONELLA TYPHIMURIUM, Strain/Indicator: TA1538, Metabolic Activation: RAT, LIVER, S-9, Method: PREINCUBATION
  mutagenic call: inactive; negative
Test System: E. COLI, Strain/Indicator: WP2, Metabolic Activation: NONE, Method: PREINCUBATION
  mutagenic call: inactive; negative
Test System: E. COLI, Strain/Indicator: WP2 UVRA, Metabolic Activation: NONE, Method: PREINCUBATION
  mutagenic call: inactive; negative
Test System: E. COLI, Strain/Indicator: WP2 UVRA, Metabolic Activation: RAT, LIVER, S-9, Method: PREINCUBATION
  mutagenic call: inactive; negative

## Clc1cnc(Oc2ccc(Oc3ncc(Cl)cc3Cl)cc2)c(Cl)c1
[3]
  mutagenic call: inactive; negative
Test System: AMES SALMONELLA TYPHIMURIUM, Strain/Indicator: TA98, Metabolic Activation: RAT, LIVER, S-9, PHENOBARBITAL AND 5,6-BENZOFLAVONE, Method: STANDARD PLATE
  mutagenic call: inactive; negative
Test System: AMES SALMONELLA TYPHIMURIUM, Strain/Indicator: TA98, Method: STANDARD PLATE
  mutagenic call: inactive; negative
[4]
  mutagenic call: inactive; negative
Test System: AMES SALMONELLA TYPHIMURIUM, Strain/Indicator: TA100, Metabolic Activation: RAT, LIVER, S-9, PHENOBARBITAL AND 5,6-BENZOFLAVONE, Method: STANDARD PLATE
  mutagenic call: inactive; negative
Test System: AMES SALMONELLA TYPHIMURIUM, Strain/Indicator: TA100, Method: STANDARD PLATE
  mutagenic call: inactive; negative
Test System: AMES SALMONELLA TYPHIMURIUM, Strain/Indicator: TA102, Metabolic Activation: NONE, Method: STANDARD PLATE
  mutagenic call: inactive; negative
Test System: AMES SALMONELLA TYPHIMURIUM, Strain/Indicator: TA102, Metabolic Activation: RAT, LIVER, S-9, PHENOBARBITAL AND 5,6-BENZOFLAVONE, Method: STANDARD PLATE
  mutagenic call: inactive; negative
Test System: AMES SALMONELLA TYPHIMURIUM, Strain/Indicator: TA102, Method: STANDARD PLATE
  mutagenic call: inactive; negative

## O=NN(C1CCCCC1)C1CCCCC1
End Point: IN VITRO MICRONUCLEUS, Test System: HUMAN LYMPHOCYTES, Metabolic Activation: NONE
  mutagenic call: active; positive

## ClC(Cl)Cl
Test System: AMES SALMONELLA TYPHIMURIUM, Strain/Indicator: RSJ100, Metabolic Activation: NONE, Method: PREINCUBATION
  mutagenic call: inactive; negative
Test System: AMES SALMONELLA TYPHIMURIUM, Strain/Indicator: RSJ100, Metabolic Activation: RAT LIVER S-9, Method: PREINCUBATION
  mutagenic call: inactive; negative
[1]
  mutagenic call: inactive; negative
[3]
  mutagenic call: active; positive
Test System: AMES SALMONELLA TYPHIMURIUM, Strain/Indicator: TA98, Metabolic Activation: RAT LIVER S-9, Method: PREINCUBATION
  mutagenic call: inactive; negative
Test System: AMES SALMONELLA TYPHIMURIUM, Strain/Indicator: TA98, Metabolic Activation: RAT, LIVER, S-9, AROCLOR 1254, Method: STANDARD PLATE
  mutagenic call: active; positive
Test System: AMES SALMONELLA TYPHIMURIUM, Strain/Indicator: TA100, Metabolic Activation: NONE, Method: FLUCTUATION TEST
  mutagenic call: inactive; negative
[2]
  mutagenic call: inactive; negative
[4]
  mutagenic call: active; positive
Test System: AMES SALMONELLA TYPHIMURIUM, Strain/Indicator: TA100, Metabolic Activation: RAT LIVER S-9, Method: PREINCUBATION
  mutagenic call: inactive; negative
Test System: AMES SALMONELLA TYPHIMURIUM, Strain/Indicator: TA100, Metabolic Activation: RAT, LIVER, S-9, AROCLOR 1254, Method: FLUCTUATION TEST
  mutagenic call: inactive; negative
Test System: AMES SALMONELLA TYPHIMURIUM, Strain/Indicator: TA100, Metabolic Activation: RAT, LIVER, S-9, AROCLOR 1254, Method: STANDARD PLATE
  mutagenic call: active; positive
Test System: AMES SALMONELLA TYPHIMURIUM, Strain/Indicator: TA1535 (GST-), Metabolic Activation: NONE, Method: STANDARD PLATE
  mutagenic call: inactive; negative
Test System: AMES SALMONELLA TYPHIMURIUM, Strain/Indicator: TA1535, Metabolic Activation: RAT, LIVER, S-9, AROCLOR 1254, Method: STANDARD PLATE
  mutagenic call: active; positive
Test System: AMES SALMONELLA TYPHIMURIUM, Strain/Indicator: TA1537, Metabolic Activation: NONE, Method: STANDARD PLATE
  mutagenic call: active; positive
Test System: AMES SALMONELLA TYPHIMURIUM, Strain/Indicator: TA1537, Metabolic Activation: RAT, LIVER, S-9, AROCLOR 1254, Method: STANDARD PLATE
  mutagenic call: active; positive
Test System: Ames Salmonella typhimurium, Strain/Indicator: TA98, Metabolic Activation: None, Method: Gas exposure method
  mutagenic call: inactive; negative
Test System: Ames Salmonella typhimurium, Strain/Indicator: TA98, Metabolic Activation: Rat, Liver, S9, Sodium phenobarbital and 5,6-benzoflavone (10%), Method: Gas exposure method
  mutagenic call: inactive; negative
Test System: Ames Salmonella typhimurium, Strain/Indicator: TA100, Metabolic Activation: None, Method: Gas exposure method
  mutagenic call: inactive; negative
Test System: Ames Salmonella typhimurium, Strain/Indicator: TA100, Metabolic Activation: Rat, Liver, S9, Sodium phenobarbital and 5,6-benzoflavone (10%), Method: Gas exposure method
  mutagenic call: inactive; negative
Test System: Ames Salmonella typhimurium, Strain/Indicator: TA1535, Metabolic Activation: None, Method: Gas exposure method
  mutagenic call: inactive; negative
Test System: Ames Salmonella typhimurium, Strain/Indicator: TA1535, Metabolic Activation: Rat, Liver, S9, Sodium phenobarbital and 5,6-benzoflavone (10%), Method: Gas exposure method
  mutagenic call: inactive; negative
Test System: Ames Salmonella typhimurium, Strain/Indicator: TA1537, Metabolic Activation: None, Method: Gas exposure method
  mutagenic call: inactive; negative
Test System: Ames Salmonella typhimurium, Strain/Indicator: TA1537, Metabolic Activation: Rat, Liver, S9, Sodium phenobarbital and 5,6-benzoflavone (10%), Method: Gas exposure method
  mutagenic call: inactive; negative
Test System: CHINESE HAMSTER V-79, Strain/Indicator: V-79/8-AZAGUANINE, Metabolic Activation: NONE, Method: SUSPENSION/PLATE
  mutagenic call: active; positive
Test System: CHINESE HAMSTER V-79, Strain/Indicator: V-79/OUABAIN, Metabolic Activation: NONE, Method: SUSPENSION/PLATE
  mutagenic call: inactive; negative
Test System: E. coli, Strain/Indicator: WP2/pKM101, Metabolic Activation: None, Method: Gas exposure method
  mutagenic call: inactive; negative (two experimental trials)
Test System: E. coli, Strain/Indicator: WP2/pKM101, Metabolic Activation: Rat, Liver, S9, Sodium phenobarbital and 5,6-benzoflavone (10%) with glutathione, Method: Gas exposure method
  mutagenic call: inactive; negative (two experimental trials)
Test System: E. coli, Strain/Indicator: WP2/pKM101, Metabolic Activation: Rat, Liver, S9, Sodium phenobarbital and 5,6-benzoflavone (10%) without glutathione, Method: Gas exposure method
  mutagenic call: inactive; negative (two experimental trials)
Test System: E. coli, Strain/Indicator: WP2uvrA/pKM101, Metabolic Activation: None, Method: Gas exposure method
  mutagenic call: inactive; negative
Test System: E. coli, Strain/Indicator: WP2uvrA/pKM101, Metabolic Activation: Rat, Liver, S9, Sodium phenobarbital and 5,6-benzoflavone (10%), Method: Gas exposure method
  mutagenic call: inactive; negative
Test System: E.COLI, Strain/Indicator: WP2UVRA/PKM101, Metabolic Activation: NONE, Method: GAS EXPOSURE
  mutagenic call: inactive; negative
Test System: E.COLI, Strain/Indicator: WP2UVRA/PKM101, Metabolic Activation: RAT LIVER S-9, PHENOBARBITOL AND 5,6-BENZOFLAVONE, GLUTATHIONE-SUPPLEMENTED, Method: GAS EXPOSURE
  mutagenic call: active; positive
Test System: E.COLI, Strain/Indicator: WP2UVRA/PKM101, Metabolic Activation: RAT LIVER S-9, PHENOBARBITOL AND 5,6-BENZOFLAVONE, Method: GAS EXPOSURE
  mutagenic call: inactive; negative
Test System: MOUSE LYMPHOMA, Strain/Indicator: L5178Y (TK+/TK-), Metabolic Activation: NONE, Method: SUSPENSION/PLATE
  mutagenic call: inactive; negative
Test System: MOUSE LYMPHOMA, Strain/Indicator: L5178Y (TK+/TK-), Metabolic Activation: RAT, LIVER, S-9, AROCLOR 1254, Method: SUSPENSION/PLATE
  mutagenic call: active; positive
Test System: UDS MOUSE HEPATOCYTES, Strain/Indicator: THY INCORP, Metabolic Activation: NONE, Method: AUTORADIOGRAPHY
  mutagenic call: inactive; negative
